Measurements reported in patent US9695155B2, “Herbicidal substituted pyrimidinyloxy benzene compounds” (E. I. DU PONT DE NEMOURS AND COMPANY, priority 2013, dated 2017).

What was measured:
pigweed [1] = test: Test A postemergence; format: in vivo, Amaranthus retroflexus; details: 0 to 100 scale where 0 is no effect and 100 is complete control
Procedure, shortened: (§1)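 Scoring: eye-based comparison with untreated controls, 0 for no effect through 100 for complete control, at about day 10. Treatments: directed soil spray preemergence; foliar spray postemergence on 2–10 cm plants at the one- to two-leaf stage. Medium: loam soil with sand.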

pigweed [2] = test: Test C postemergence; format: in vivo, Amaranthus retroflexus
Procedure, shortened: (§2)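 Injury was assessed visually against controls 13 to 15 days after application, with 0 meaning no effect and 100 full control; missing entries are shown as a dash. Preemergence sprays hit seeded loam–sand soil, postemergence sprays hit 1- to 4-leaf plants.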

kochia = test: Test C postemergence; format: in vivo, Kochia scoparia
Procedure, shortened: as §2

giant foxtail = test: Test A preemergence; format: in vivo, Setaria faberii
Procedure, shortened: as §1

wheat, winter = test: Test C preemergence; format: in vivo, Triticum aestivum
Procedure, shortened: as §2

barnyardgrass [3] = test: Test C preemergence; format: in vivo, Echinochloa crus-galli
Procedure, shortened: as §2

barnyardgrass [4] = test: Test B flooded paddy test; format: in vivo, Echinochloa crus-galli; details: Flood, 250 g ai/ha, 0 to 100 scale where 0 is no effect and 100 is complete control
Procedure, shortened: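 Scores from 0 (no effect) to 100 (complete control) are visual comparisons with controls, taken 13 to 15 days after compound was applied into floodwater 3 cm deep around 2-leaf plants.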

Italian ryegrass = test: Test C postemergence; format: in vivo, Lolium multiflorum
Procedure, shortened: as §2

lambsquarters = test: Test C preemergence; format: in vivo, Chenopodium album
Procedure, shortened: as §2

wheat = test: Test A postemergence; format: in vivo, Triticum aestivum; details: 0 to 100 scale where 0 is no effect and 100 is complete control
Procedure, shortened: as §1

morningglory = test: Test C postemergence; format: in vivo, Ipomoea coccinea
Procedure, shortened: as §2

[5] = Postemergence, 31 g ai/ha, scale 0 to 100 (0 no effect, 100 complete control), 13 to 15 days
[6] = Postemergence, 62 g ai/ha, scale 0 to 100 (0 no effect, 100 complete control)
[7] = 16 g ai/ha, preemergence, scale 0 to 100 (0 no effect, 100 complete control)
[8] = 62 g ai/ha, preemergence, scale 0 (no effect) to 100 (complete control)
[9] = 125 g ai/ha, preemergence, scale 0 (no effect) to 100 (complete control)
[10] = Preemergence, 31 g ai/ha, scale 0 to 100, 0 no effect, 100 complete control

Which pest or weed control at 500 g/ha (pigweed [1]; Amaranthus retroflexus, post-emergence, 500 g ai/ha, read-out: Plant response rating, Pigweed) does the source give for `FC(F)(F)Sc1cnn(-c2ccccc2Oc2ncc(Cl)cn2)c1` [Compound 132, 5-chloro-2-[2-[4-(trifluoromethylthio)-1H-pyrazol-1-yl]phenoxy]pyrimidine] here?
Its pest or weed control at 500 g/ha is 100%.

And the pest or weed control at 125 g/ha (pigweed [1]; Amaranthus retroflexus, post-emergence, 240 h, 125 g ai/ha, read-out: Pigweed plant response rating)?
The pest or weed control at 125 g/ha was 100%.

And the pest or weed control at 16 g/ha (pigweed [2]; Amaranthus retroflexus, post-emergence, 16 g ai/ha, postemergence, 0 is no effect, 100 is complete control, read-out: Plant response rating (0 to 100), Pigweed)?
The pest or weed control at 16 g/ha was 25%.

What about the pest or weed control at 125 g/ha (pigweed [2]; Amaranthus retroflexus, post-emergence, 125 g ai/ha, postemergence, visual rating, scale 0 to 100 (0 no effect, 100 complete control), read-out: Plant response rating, Pigweed) of the same compound?
Its pest or weed control at 125 g/ha is 80%.

What about the pest or weed control at 62 g/ha (pigweed [2]; Amaranthus retroflexus, post-emergence, Postemergence, 62 g ai/ha, scale 0 to 100 (0 no effect, 100 complete control), read-out: Plant response rating, Pigweed) of the same compound?
Its pest or weed control at 62 g/ha is 75%.

And the pest or weed control at 16 g/ha (kochia; Bassia scoparia, post-emergence, 16 g ai/ha, postemergence, 0 is no effect, 100 is complete control, read-out: Plant response rating (0 to 100), Kochia)?
Its pest or weed control at 16 g/ha is 10%.

What about the pest or weed control at 125 g/ha (kochia; Bassia scoparia, post-emergence, 125 g ai/ha, postemergence, visual rating, scale 0 to 100 (0 no effect, 100 complete control), read-out: Plant response rating, Kochia) of the same compound?
Its pest or weed control at 125 g/ha is 95%.

What about the pest or weed control at 62 g/ha (kochia; Bassia scoparia, post-emergence, Postemergence, 62 g ai/ha, scale 0 to 100 (0 no effect, 100 complete control), read-out: Plant response rating, Kochia) of the same compound?
Its pest or weed control at 62 g/ha is 85%.

And the pest or weed control at 125 g/ha (giant foxtail; Setaria faberi, pre-emergence, 240 h, 125 g ai/ha, 0 to 100 scale where 0 is no effect and 100 is complete control, read-out: Plant response rating, Foxtail, Giant)?
The pest or weed control at 125 g/ha was 90%.

What about the pest or weed control at 500 g/ha (giant foxtail; Setaria faberi, pre-emergence, 240 h, 500 g ai/ha, 0 to 100 scale where 0 is no effect and 100 is complete control, read-out: Foxtail, Giant plant response rating) of the same compound?
The pest or weed control at 500 g/ha was 100%.

What about the plant injury at 16 g/ha (wheat, winter; Triticum aestivum, pre-emergence, 16 g ai/ha, preemergence, scale 0 to 100 (0 no effect, 100 complete control), read-out: Wheat plant response rating) of the same compound?
The plant injury at 16 g/ha was 0%.

And the plant injury at 62 g/ha (wheat, winter; Triticum aestivum, pre-emergence, 62 g ai/ha, preemergence, scale 0 (no effect) to 100 (complete control), read-out: Wheat plant response rating)?
The plant injury at 62 g/ha was 0%.

What about the plant injury at 125 g/ha (wheat, winter; Triticum aestivum, pre-emergence, 125 g ai/ha, preemergence, scale 0 (no effect) to 100 (complete control), read-out: Wheat plant response rating) of the same compound?
Its plant injury at 125 g/ha is 0%.

What about the plant injury at 31 g/ha (wheat, winter; Triticum aestivum, pre-emergence, Preemergence, 31 g ai/ha, scale 0 to 100, 0 no effect, 100 complete control, read-out: Plant response rating, Wheat) of the same compound?
The plant injury at 31 g/ha was 0%.

And the pest or weed control at 16 g/ha (barnyardgrass [3]; Echinochloa crus-galli, pre-emergence, 16 g ai/ha, preemergence, scale 0 to 100 (0 no effect, 100 complete control), read-out: Barnyardgrass plant response rating)?
Its pest or weed control at 16 g/ha is 0%.

What about the pest or weed control at 62 g/ha (barnyardgrass [3]; Echinochloa crus-galli, pre-emergence, 62 g ai/ha, preemergence, scale 0 (no effect) to 100 (complete control), read-out: Barnyardgrass plant response rating) of the same compound?
The pest or weed control at 62 g/ha was 10%.

And the pest or weed control at 125 g/ha (barnyardgrass [3]; Echinochloa crus-galli, pre-emergence, 125 g ai/ha, preemergence, scale 0 (no effect) to 100 (complete control), read-out: Barnyardgrass plant response rating)?
The pest or weed control at 125 g/ha was 75%.

And the pest or weed control at 31 g/ha (barnyardgrass [3]; Echinochloa crus-galli, pre-emergence, Preemergence, 31 g ai/ha, scale 0 to 100, 0 no effect, 100 complete control, read-out: Plant response rating, Barnyardgrass)?
Its pest or weed control at 31 g/ha is 0%.

What about the pest or weed control at 250 g/ha (barnyardgrass [4]; Echinochloa crus-galli, read-out: Plant response rating, Barnyardgrass) of the same compound?
The pest or weed control at 250 g/ha was 0%.

And the pest or weed control at 16 g/ha (Italian ryegrass; Lolium multiflorum, post-emergence, 16 g ai/ha, postemergence, 0 is no effect, 100 is complete control, read-out: Plant response rating (0 to 100), Ryegrass, Italian)?
Its pest or weed control at 16 g/ha is 0%.

And the pest or weed control at 125 g/ha (Italian ryegrass; Lolium multiflorum, post-emergence, 125 g ai/ha, postemergence, visual rating, scale 0 to 100 (0 no effect, 100 complete control), read-out: Plant response rating, Ryegrass, Italian)?
Its pest or weed control at 125 g/ha is 5%.

And the pest or weed control at 62 g/ha (Italian ryegrass; Lolium multiflorum, post-emergence, Postemergence, 62 g ai/ha, scale 0 to 100 (0 no effect, 100 complete control), read-out: Plant response rating, Ryegrass, Italian)?
The pest or weed control at 62 g/ha was 5%.

And the pest or weed control at 16 g/ha (lambsquarters; Chenopodium album, pre-emergence, 16 g ai/ha, preemergence, scale 0 to 100 (0 no effect, 100 complete control), read-out: Lambsquarters plant response rating)?
The pest or weed control at 16 g/ha was 75%.

And the pest or weed control at 62 g/ha (lambsquarters; Chenopodium album, pre-emergence, 62 g ai/ha, preemergence, scale 0 (no effect) to 100 (complete control), read-out: Lambsquarters plant response rating)?
Its pest or weed control at 62 g/ha is 100%.

And the pest or weed control at 125 g/ha (lambsquarters; Chenopodium album, pre-emergence, 125 g ai/ha, preemergence, scale 0 (no effect) to 100 (complete control), read-out: Lambsquarters plant response rating)?
Its pest or weed control at 125 g/ha is 100%.

And the pest or weed control at 31 g/ha (lambsquarters; Chenopodium album, pre-emergence, Preemergence, 31 g ai/ha, scale 0 to 100, 0 no effect, 100 complete control, read-out: Plant response rating, Lambsquarters)?
Its pest or weed control at 31 g/ha is 55%.

What about the plant injury at 125 g/ha (wheat; Triticum aestivum, post-emergence, 240 h, 125 g ai/ha, read-out: Wheat plant response rating) of the same compound?
Its plant injury at 125 g/ha is 0%.

And the plant injury at 500 g/ha (wheat; Triticum aestivum, post-emergence, 240 h, 500 g ai/ha, read-out: Plant response rating, Wheat)?
Its plant injury at 500 g/ha is 60%.

And the pest or weed control at 16 g/ha (morningglory; Ipomoea, post-emergence, 16 g ai/ha, postemergence, 0 is no effect, 100 is complete control, read-out: Plant response rating (0 to 100), Morningglory)?
Its pest or weed control at 16 g/ha is 10%.

And the pest or weed control at 125 g/ha (morningglory; Ipomoea, post-emergence, 125 g ai/ha, postemergence, visual rating, scale 0 to 100 (0 no effect, 100 complete control), read-out: Plant response rating, Morningglory)?
Its pest or weed control at 125 g/ha is 65%.

And the pest or weed control at 62 g/ha (morningglory; Ipomoea, post-emergence, Postemergence, 62 g ai/ha, scale 0 to 100 (0 no effect, 100 complete control), read-out: Plant response rating, Morningglory)?
The pest or weed control at 62 g/ha was 75%.

What does the source list for `CCOc1cnn(-c2c(C#N)cccc2Oc2ncc(F)cn2)c1` [Compound 89]?
Plant response rating, Pigweed (pigweed [1]; 125 g ai/ha): 90; Plant response rating, Pigweed (pigweed [1]; 500 g ai/ha): 100; Plant response rating (0 to 100), Pigweed (pigweed [2]; 125 g ai/ha, postemergence): 40; Plant response rating, Pigweed (pigweed [2]; [5]): 35; Plant response rating, Pigweed (pigweed [2]; [6]): 35; Kochia plant response rating (kochia; 16 g ai/ha, postemergence, visual rating, scale 0 to 100 (0 no effect, 100 complete control), 13 to 15 days): 45; Plant response rating (0 to 100), Kochia (kochia; 125 g ai/ha, postemergence): 50; Plant response rating, Kochia (kochia; [5]): 50; Plant response rating, Kochia (kochia; [6]): 60; Plant response rating, Foxtail, Giant (giant foxtail; 125 g ai/ha, 0 to 100 scale where 0 is no effect and 100 is complete control): 90; Foxtail, Giant plant response rating (giant foxtail; 500 g ai/ha, 0 to 100 scale, 0 no effect, 100 complete control, approx. 10 days): 90; Wheat plant response rating (wheat, winter; [7]): 0; Wheat plant response rating (wheat, winter; [8]): 0; Wheat plant response rating (wheat, winter; [9]): 5; Plant response rating, Wheat (wheat, winter; [10]): 0; Barnyardgrass plant response rating (barnyardgrass [3]; [7]): 5; Barnyardgrass plant response rating (barnyardgrass [3]; [8]): 70; Barnyardgrass plant response rating (barnyardgrass [3]; [9]): 100; Plant response rating, Barnyardgrass (barnyardgrass [3]; [10]): 35; Plant response rating, Barnyardgrass (barnyardgrass [4]): 10; Plant response rating (0 to 100), Ryegrass, Italian (Italian ryegrass; 125 g ai/ha, postemergence): 5; Plant response rating, Ryegrass, Italian (Italian ryegrass; [5]): 0; Plant response rating, Ryegrass, Italian (Italian ryegrass; [6]): 5; Lambsquarters plant response rating (lambsquarters; [7]): 45; Lambsquarters plant response rating (lambsquarters; [8]): 95; Lambsquarters plant response rating (lambsquarters; [9]): 100; Plant response rating, Lambsquarters (lambsquarters; [10]): 80; Plant response rating, Wheat (wheat; 125 g ai/ha): 20; Plant response rating, Wheat (wheat; 500 g ai/ha): 70; Plant response rating (0 to 100), Morningglory (morningglory; 125 g ai/ha, postemergence): 85; Plant response rating, Morningglory (morningglory; [5]): 70; Plant response rating, Morningglory (morningglory; [6]): 55
